Results as given in paper PMC11058299, “Synthesis, molecular docking evaluation for LOX and COX-2 inhibition and determination of in-vivo analgesic potentials of aurone derivatives” (Heliyon, 2024).
“Also recorded” adds a separate entry of the source.

Target: T1, LOX enzyme (Glycine max, UniProt P08170)
T1 construct: purchased Cayman Chemicals
T1 sequence (P08170 1-839): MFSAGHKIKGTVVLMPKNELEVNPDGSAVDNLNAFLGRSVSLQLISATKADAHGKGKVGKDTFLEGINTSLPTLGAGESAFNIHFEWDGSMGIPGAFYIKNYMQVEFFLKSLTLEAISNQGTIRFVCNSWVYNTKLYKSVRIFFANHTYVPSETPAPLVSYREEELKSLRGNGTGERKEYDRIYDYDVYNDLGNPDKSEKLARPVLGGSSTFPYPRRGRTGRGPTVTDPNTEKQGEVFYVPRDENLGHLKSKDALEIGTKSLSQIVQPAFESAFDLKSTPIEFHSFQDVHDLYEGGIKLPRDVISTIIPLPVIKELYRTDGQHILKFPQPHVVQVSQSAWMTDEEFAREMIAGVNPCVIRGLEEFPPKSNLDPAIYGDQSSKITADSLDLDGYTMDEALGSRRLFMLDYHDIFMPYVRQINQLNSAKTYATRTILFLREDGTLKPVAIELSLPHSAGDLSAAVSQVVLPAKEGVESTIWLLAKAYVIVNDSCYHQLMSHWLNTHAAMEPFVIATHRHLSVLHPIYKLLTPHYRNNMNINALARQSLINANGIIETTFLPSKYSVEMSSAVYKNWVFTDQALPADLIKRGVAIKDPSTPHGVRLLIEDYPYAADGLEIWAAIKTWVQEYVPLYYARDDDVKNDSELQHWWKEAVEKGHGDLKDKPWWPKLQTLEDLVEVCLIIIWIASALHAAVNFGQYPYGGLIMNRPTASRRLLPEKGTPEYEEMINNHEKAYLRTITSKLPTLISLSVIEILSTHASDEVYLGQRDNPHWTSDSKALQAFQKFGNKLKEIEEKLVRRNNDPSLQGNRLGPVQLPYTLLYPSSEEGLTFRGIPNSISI
Assay: LOX enzyme kinetic assay (Lineweaver-Burk)
Type: biochemical
Settings: Lineweaver-Burk plot
Procedure: The type of enzyme inhibition by compound (WE-4) was determined using the continuous spectrophotometric rate determination method. Various concentrations of the substrate (AA) were prepared in a Tween-20 solution within a 200 mM borate buffer at pH 9.0. A fixed concentration of LOX enzyme (10,000 units/ml) was prepared in a separate 200 mM borate buffer at pH 9.0. The enzyme kinetics were analyzed by employing the Lineweaver and Burk method while examining the substrate at different concentrations in the presence or absence of compound (WE-4).

COc1ccc(C=C2Oc3ccccc3C2=O)cc1OC [WE-4, 2-(3,4-dimethoxybenzylidene)benzofuran-3(2H)-one]
type of enzyme inhibition: non-competitive inhibitor; also recorded: non-competitive inhibition
